Data set [1] deals with P-450 2E1. The note with it: isolated rat liver microsomes; cited from earlier work. (Liver microsomes are a subcellular fraction often used to study metabolism.)
Data set [2] relates to p-nitrophenol hydroxylase. Conditions: isolated rat liver microsomes; cited from earlier work.
For data set [3], the system named is P-450 2E1. The note with it: cited from earlier work; for liver microsomal P-450 2E1-dependent (NDMA demethylase) activity: treatment of rats.
Data set [4] relates to acetaminophen bioactivation. The note with it: cited from earlier work.
Data set [5] deals with acetaminophen-induced hepatotoxicity. Nature of the data set: Protective effect against acetaminophen overdose in rats (serum GPT, LDH, liver damage). Conditions: for minimal effective dose: Rattus norvegicus, read-out: low dose at which protective effect was demonstrated. Format: in vivo, rat (male Fisher 344). The method, then:
Brady et al., "Effect of […] […] Biochem. […] Extent of tissue damage was determined using a […]-6 Image Analysis System (Advanced Imaging Concepts, Inc.). […] All determinations were made without knowledge of treatment group. […] All experiments were replicated at least once.

For data set [6] the test system is unchanged. Nature of the data set: animal or person. The note with it: for minimal effective dose: read-out: low dose at which protective effect was demonstrated. From the text:
Blood samples were obtained from the jugular vein of CO2 -anesthetizedanimals. The blood was allowed to clot at room temperature and serum was separated by centrifugation. […] Biochem. Biophys.
Randomly-selected samples of the major hepatic lobe were fixed in 10% buffered formalin for histological evaluation. Samples were subsequently embedded in Paraplast (Fisher Scientific) and sectioned at 6 μm on a rotary microtome. Tissue sections were stained with hematoxylin-eosine-phloxine for examination. Extent of tissue damage was determined using a Presage CV-6 Image Analysis System (Advanced Imaging Concepts, Inc.). Images of randomly-selected slides (3 slides/animal, 2-3 animals/group) containing full cross sections of the major hepatic lobe were projected onto a computer screen and the image captured. The areas of damage were then outlined on the screen and the areas quantated using interactive software. The area of damage was shown as a percentage of the total hepatic area for each section. All determinations were made without knowledge of treatment group.
Data were analyzed by the Newman-Keuls multiple comparison procedure on the rank score analysis.
All experiments were replicated at least once.
As a Comparative Example, 300 mg/kg N-acetylcysteine was also administered immediately after administration of 0.2 g/kg acetaminophen.
As a Comparative Example, 300 mg/kg N-acetylcysteine was also administered 1 hour after administration of 0.2 g/kg acetaminophen.

In data set [7] the test system is P-450 2E1. Nature of the data set: Hepatic microsomal NDMA demethylase activity after a single oral dose in mice. The format is in vivo, mouse. The note with it: for NDMA demethylase activity, % of the control level: 50 mg/kg single oral dose. As for the experimental part: (§1) Biochem. Biophys. 238:42-48 (1985).
(§2) In Example 3, this effect was studied in mice. In Example 3, changes in hepatic monooxygenase enzymes after a single oral dose of DASO2 were studied. DASO2 (50 mg/kg) was administrated to mice intragastrically and sacrificed at the indicated time. Control (0 time) mice received distilled water only.
(§3) Hepatic microsomal NDMA demethylase activity (O) is expressed as nmol HCHO produced/min/mg. Pentoxyresorufin ([ ]) and ethoxyresorufin dealkylase activities are expressed as pmol resorufin produced/min/mg. Each point represents the mean ±S.D. of five separate microsomal preparations. *p<0.05 compared to control.

A further data set has as its system P-450 1A2. Nature of the data set: Hepatic microsomal ethoxyresorufin (EORR) dealkylase activity after a single oral dose in mice. The format is in vivo, mouse. As for the experimental part: as §1, §2, §3
The test system of data set [8] is hepatotoxicity of N-nitrosodimethylamine. The note with it: pre-treatment of rats; cited from earlier work.
In data set [9] the test system is 1,2-dimethylhydrazine-induced hepatotoxicity and carcinogenesis. Conditions: rats; cited from earlier work.
In data set [10] the test system is carbon tetrachloride hepatotoxicity. Conditions: cited from earlier work.
[11] abbreviates: 5 mg/kg oral, 1 h after APAP 0.4 g/kg.
The mark [12] stands for this setting: 5 mg/kg oral, 3 hours after APAP 0.4 g/kg.
Setting [13] is: 15 mg/kg oral, 1 h after APAP 0.4 g/kg.
[14] abbreviates: 50 mg/kg oral, 1 hour after APAP 0.4 g/kg.
The mark [15] stands for this setting: 50 mg/kg oral, 1 hour after APAP 0.4 g/kg, mean ± SD of five rats.
The mark [16] stands for this setting: 50 mg/kg oral, 3 hours after APAP 0.4 g/kg.
The mark [17] stands for this setting: 50 mg/kg oral, 6 hours after APAP 0.4 g/kg.
Where [18] appears, read: 5 mg/kg oral, immediately (0 min) after APAP 0.2 g/kg.
[19] abbreviates: 10 mg/kg oral, 20 min after APAP 0.2 g/kg.
Where [20] appears, read: 25 mg/kg oral, 20 min after APAP 0.2 g/kg.
[21] abbreviates: 25 mg/kg oral, 1 hour after APAP 0.2 g/kg.
The mark [22] stands for this setting: 25 mg/kg oral, immediately (0 min) after APAP 0.2 g/kg.
The mark [23] stands for this setting: 50 mg/kg oral, immediately (0 min) after APAP 0.2 g/kg.

These results are taken from patent publication US5474757A, “Prevention of acetaminophen overdose toxicity with organosulfur compounds” (priority 1992, dated 1995).

“And” between values parts separate entries of the source, which are not always exact repeats. Equal values may be shown once.

For `C=CC[S+]([O-])CC=C` [DASO, diallyl sulfoxide], the “inhibition of P-450 2E1-catalyzed NDMA demethylase” value in the data set with P-450 2E1 [1] is “competitively”. Further, the “inhibition of p-nitrophenol hydroxylase” value in data set [2] is recorded as “competitively”. Besides, the “liver microsomal P-450 2E1-dependent (NDMA demethylase) activity” value (from here on “liver microsomal P-450 2E1-dependent”) in the data set on P-450 2E1 [3] was “decreased”.

For `CCO` [ethanol], the “inhibition of acetaminophen bioactivation” value in data set [4] is given as “inhibit acetaminophen bioactivation”.

Turning to `C=CCS(=O)(=O)CC=C` [DASO2, diallyl sulfone], the “Extent of liver necrosis (grade)” value in [5] (setting [11]) is given as 1; in data set [5] (setting [13]) it was 1; in data set [5] (50 mg/kg oral, 1 h after APAP 0.4 g/kg), 0; in data set [5] (50 mg/kg oral, 3 h after APAP 0.4 g/kg), 1; in [5] (50 mg/kg oral, 6 h after APAP 0.4 g/kg) it was 2. Further, the GPT was 162 ± 27.3 U/L in data set [5] (setting [11]); 139 ± 46 U/L in data set [5] (setting [12]); 52 ± 8.2 U/L in [5] (setting [13]); 48 ± 9 U/L and 48 ± 9.6 U/L in [5] (setting [15]); 133 ± 64 U/L in [5] (setting [16]); 182 ± 47 U/L in data set [5] (setting [17]). Further, the GPT is 51 ± 8 U/L in [6] (setting [18]); 212 ± 1 U/L in data set [6] (setting [19]); 89 ± 13 U/L in data set [6] (setting [20]); 110 ± 70 U/L in [6] (setting [21]); 66 ± 18 U/L and 84 ± 37 U/L in [6] (setting [22]); 79 ± 5 U/L in [6] (setting [23]). Further, the LDH in [5] (setting [11]) was 377 ± 71 U/L; in [5] (setting [13]), 222 ± 44 U/L; in data set [5] (setting [15]), 279 ± 50 U/L and 279 ± 41 U/L; in data set [5] (setting [16]), 315 ± 120 U/L; in data set [5] (setting [17]) it was 375 ± 111 U/L; in data set [6] (setting [18]), 433 ± 98 U/L. Moreover, the LDH in data set [6] (setting [19]) is 16639 ± 8578 U/L; in data set [6] (setting [20]), 648 ± 231 U/L; in data set [6] (setting [21]) it was 1340 ± 1568 U/L; in data set [6] (setting [22]), 611 ± 252 U/L; in data set [6] (setting [23]) it was 772 ± 1138 U/L and 772 ± 138 U/L. The “Extent of liver damage” value in [5] (setting [12]) is reported as 23-38%; in [5] (setting [14]), 0-5%; in data set [5] (setting [16]), 4-8%; in data set [5] (setting [17]), 21-40%; in data set [6] (setting [18]), 3-5%; in data set [6] (setting [21]), 3-10%. The “Extent of liver damage” value is 5-10% in data set [6] (setting [22]) and 4-9% in data set [6] (setting [23]). For the same molecule, the minimal effective dose in data set [5] (rats) and in data set [6] (Mus musculus) was 5 mg/kg in each case. For the same molecule, the Survival in data set [6] (setting [18]), in data set [6] (setting [19]), in data set [6] (setting [20]), in [6] (setting [21]), in data set [6] (setting [22]) and in [6] (setting [23]) was 5/5 in each case. In data set [6] (Mus musculus, read-out: dose sufficient to produce maximal protection), the ED (maximal) was found to be 5 mg/kg. Besides, the “NDMA demethylase activity, % of the control level” value stood at 31% in the data set with P-450 2E1 [7] (0.5 hours), 54% in the data set with P-450 2E1 [7] (1 hour), 49% in the data set on P-450 2E1 [7] (3 hours) and 73% in the data set with P-450 2E1 [7] (6 hours). Also, the “hepatic cytochrome P-450 2E1 activity” value in the data set with P-450 2E1 [7] (oral administration, mice) is “rapid decreases”. The “ethoxyresorufin (EORR) dealkylase activity, % of control level” value in the data set with P-450 1A2 (50 mg/kg single oral dose, 0.5 hours) was 79%; in the data set on P-450 1A2 (50 mg/kg single oral dose, 1 hour), 39%; in the data set with P-450 1A2 (50 mg/kg single oral dose, 3 hours), 52%; in the data set on P-450 1A2 (50 mg/kg single oral dose, 6 hours) it was 46%. For the same molecule, the EORR dealkylase activity result in the data set on P-450 1A2 (50 mg/kg single oral dose, after 15 hours) is “returned to control levels”. In addition, the “hepatic cytochrome P-450 1A2 activity” value in the data set with P-450 1A2 (oral administration, mice) is given as “rapid decreases”. Further, the “liver microsomal NDMA demethylase activity” value in the data set on P-450 2E1 [3] (200 mg/kg, rats) is “marked decrease”. Besides, the “liver microsomal P-450 2E1-dependent” value in the data set on P-450 2E1 [3] is recorded as “decreased”.

With `C=CCSCC=C` [DAS, diallyl sulfide], the “Extent of liver damage” value in data set [5] (setting [14]) is 5-13%; in data set [6] (setting [21]) it was 16-39%; in [6] (setting [22]) it was 8-17%. For the same molecule, the GPT is reported as 70 ± 13 U/L in [5] (setting [15]), 158 ± 41 U/L in data set [6] (setting [20]), 179 ± 2 U/L in data set [6] (setting [21]) and 143 ± 50 U/L in [6] (setting [22]). The LDH in data set [5] (setting [15]) is on record as 220 ± 82 U/L; in [6] (setting [20]), 2374 ± 3533 U/L; in data set [6] (setting [21]) it was 15609 ± 7143 U/L; in [6] (setting [22]) it was 1899 ± 1724 U/L. In addition, the protection against hepatotoxicity result in data set [5] (50 mg/kg, 1 hr after APAP, rats) was “prevented the elevation of serum GPT and LDH levels, but did not completely prevent liver damage”. The minimal effective dose in [5] (rats) and in [6] (Mus musculus) was 5 mg/kg throughout. Moreover, the Survival is listed as 5/5 in data set [6] (setting [20]), 3/5 in data set [6] (setting [21]) and 5/5 in data set [6] (setting [22]). In addition, the “protection against acetaminophen toxicity” value in [6] (25 mg/kg, immediately after acetaminophen, mice) was “although preventing the elevation of the LDH level, only partially prevented liver damage and had little or no effect on the elevated serum GPT level”. For the same molecule, the “inhibition of P-450 2E1-catalyzed NDMA demethylase” value in the data set on P-450 2E1 [1] is given as “competitively”. Moreover, the “inhibition of p-nitrophenol hydroxylase” value in data set [2] is on record as “competitively”. The “inhibition of hepatotoxicity of N-nitrosodimethylamine” value in [8] is given as “inhibited the hepatotoxicity”. For the same molecule, in data set [9], the “protection against 1,2-dimethylhydrazine-induced hepatotoxicity and carcinogenesis” value is “protect toxicity”. Besides, the “liver microsomal P-450 2E1-dependent” value with P-450 2E1 [3] was “decreased”. For the same molecule, in data set [10] (pre-treatment of rats), the “inhibition of hepatotoxicity of CCl4” value is given as “inhibited the hepatotoxicity”. Besides, the “protection against carbon tetrachloride hepatotoxicity” value in data set [10] (rat, in vivo) is given as “protect toxicity associated with carbon tetrachloride hepatotoxicity”.

For the molecule `C[S+](C)[O-]` [dimethyl sulfoxide], the “inhibition of acetaminophen bioactivation” value in [4] is recorded as “inhibit acetaminophen bioactivation”.

`CN/C(=N/CCSCc1nc[nH]c1C)NC#N` [cimetidine]: the “inhibition of acetaminophen bioactivation” value in data set [4] was “inhibit acetaminophen bioactivation”.
